Key:
[1] = Particle size distribution by volume, Malvern Mastersizer 2000; assay type: physicochemical; details: for d(0.5): volume median diameter, μm
Text: (§1) Using the Malvern Mastersizer 2000 we have examined the particle size by volume of a range of materials. The Mastersizer 2000 utilises a log-normal scale for description of particle sizes. We have then examined the data statistically to determine normalized Kurtosis by copying the particle size data into Microsoft Excel and performing the “KURT” function according to the method given in Example 1. Kurtosis values for those materials are given in Table 1 along with volume median diameters. A mesokurtic normal distribution has a normalized Kurtosis value of zero.
(i) The active particles were suspended (using stirring and sonication) in cyclohexane with 0.1% lecithin. Sufficient active particles were used to ensure the necessary obscuration;
(ii) The suspension was placed in the wet cell of the Malvern Mastersizer 2000 and the particle size distribution was measured using an appropriate lens system;
(iii) The results were analysed using the proprietary software of the Mastersizer 2000 to produce the size distribution given in Table 2.

[2] = Normalised Kurtosis of the particle size distribution (Microsoft Excel KURT function on Mastersizer classes); assay type: physicochemical; details: for Normalised Kurtosis: particle size by volume, Mastersizer 2000 classes, 0 = mesokurtic normal distribution; for normalized Kurtosis: positive = narrow size distribution
Text: The normalized Kurtosis is defined in formula (2) above and can be derived for a given particle size distribution by using any of a number of widely available statistical software packages, for example, Microsoft Excel.
A large number of data points is required to provide an accurate analysis of the Kurtosis of a particle size distribution. Indeed a true Kurtosis value would require the exact size of every particle in a distribution.
as §1
(iv) The results shown in Table 2 were analysed using the KURT function of Microsoft Excel which gave the normalized Kurtosis value of 6.93.

[3] = listed as commercial grade of paracetamol
[4] = listed as paracetamol material according to the invention

## CC(=O)Nc1ccc(O)cc1 [Paracetamol Milled Sigma, Paracetamol]
[1]; listed as milled paracetamol
  volume median diameter / volume median particle size: 12 μm
[1]
  d(0.5): 12 µm
[2]
  Normalised Kurtosis: −1.10
[2]; listed as milled paracetamol
  normalized Kurtosis: −1.1

## CC(=O)Nc1ccc(O)cc1 [Sigma Paracetamol, Paracetamol]
[1]; [3]
  volume median diameter / volume median particle size: 19 μm
[1]
  d(0.5): 19 µm
[2]
  Normalised Kurtosis: −0.43
[2]; [3]
  normalized Kurtosis: −0.43

## CC(=O)Nc1ccc(O)cc1 [Paracetamol from Example 1, Paracetamol]
[1]; FIG. 2, compared to the Sigma paracetamol starting material
  polydispersity of particle size distribution: much reduced polydispersity
[1]; [4]
  volume median diameter / volume median particle size: 12 μm
[1]
  d(0.5): 21 µm
[2]
  Normalised Kurtosis: 6.93
  normalized Kurtosis: 6.93
[2]; [4]
  normalized Kurtosis: 6.9

Reference: patent publication US20030157182A1, “Pharmaceutical preparations and their manufacture” (priority 2000, published 2003)
